Test results: PubChem BioAssay (NCI)
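Cells were grown in 96-well plates and exposed to each compound for 48 hours at five concentrations; endpoints were interpolated linearly between bracketing concentrations, or set to the highest concentration if not reached. At the TGI there is no net growth.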

How the values were obtained:
Experiment in all cases: growth of human tumour cells (NCI), 48 h
CCRF-CEM leukemia = tested on: CCRF-CEM leukemia
HS 578T breast = tested on: HS 578T breast
NCI-H522 lung = tested on: NCI-H522 lung
SF-295 CNS = tested on: SF-295 CNS
SW-620 colon = tested on: SW-620 colon
KM12 colon = tested on: KM12 colon
MDA-MB-435 = tested on: MDA-MB-435
NCI-H460 lung = tested on: NCI-H460 lung
SNB-75 CNS = tested on: SNB-75 CNS
SK-MEL-5 melanoma = tested on: SK-MEL-5 melanoma
MDA-MB-231 breast = tested on: MDA-MB-231 breast
UACC-62 melanoma = tested on: UACC-62 melanoma
SN12C renal = tested on: SN12C renal
SK-MEL-28 melanoma = tested on: SK-MEL-28 melanoma
OVCAR-8 ovarian = tested on: OVCAR-8 ovarian
OVCAR-4 ovarian = tested on: OVCAR-4 ovarian
SF-268 CNS = tested on: SF-268 CNS
RPMI-8226 leukemia = tested on: RPMI-8226 leukemia
M14 melanoma = tested on: M14 melanoma

## O=C(O)c1cc(O)c2c(c1)C([C@@H]1c3cccc(O)c3C(=O)c3c(O)cc(C(=O)O)cc31)c1cccc(O)c1C2=O (some centres not stated)
CCRF-CEM leukemia
  TGI: > 100 µM
HS 578T breast
  TGI: 69.4 µM
NCI-H522 lung
  TGI: 44.6 µM
SF-295 CNS
  TGI: > 100 µM
SW-620 colon
  TGI: > 100 µM
KM12 colon
  TGI: 44.3 µM
MDA-MB-435
  TGI: 49 µM
NCI-H460 lung
  TGI: > 100 µM
SNB-75 CNS
  TGI: 62.6 µM
SK-MEL-5 melanoma
  TGI: 32.2 µM
MDA-MB-231 breast
  TGI: 95.8 µM
UACC-62 melanoma
  TGI: 78.6 µM
SN12C renal
  TGI: > 100 µM
SK-MEL-28 melanoma
  TGI: > 100 µM
OVCAR-8 ovarian
  TGI: > 100 µM
OVCAR-4 ovarian
  TGI: > 100 µM
SF-268 CNS
  TGI: 96.9 µM
RPMI-8226 leukemia
  TGI: > 100 µM

## CN(/N=C\c1ccc2ccccc2c1)C1=NCCN1
CCRF-CEM leukemia
  TGI: 65 µM
HS 578T breast
  TGI: 47.5 µM
NCI-H522 lung
  TGI: 32 µM
SF-295 CNS
  TGI: 30.4 µM
SW-620 colon
  TGI: 41.7 µM
KM12 colon
  TGI: 32.8 µM
MDA-MB-435
  TGI: 30.1 µM
NCI-H460 lung
  TGI: 30.6 µM
SNB-75 CNS
  TGI: 41.5 µM
SK-MEL-5 melanoma
  TGI: 28.6 µM
MDA-MB-231 breast
  TGI: 36.1 µM
UACC-62 melanoma
  TGI: 38.8 µM
SK-MEL-28 melanoma
  TGI: 28.4 µM
OVCAR-8 ovarian
  TGI: > 100 µM
OVCAR-4 ovarian
  TGI: 73 µM
SF-268 CNS
  TGI: 84.1 µM
RPMI-8226 leukemia
  TGI: 48 µM

## CCNc1nc2c(ncn2C2CC(O)C(COP(=O)(O)O)O2)c(=O)[nH]1 (configuration not stated)
HS 578T breast
  TGI: > 100 µM
NCI-H522 lung
  TGI: > 100 µM
SF-295 CNS
  TGI: > 100 µM
SW-620 colon
  TGI: > 100 µM
KM12 colon
  TGI: > 100 µM
MDA-MB-435
  TGI: > 100 µM
NCI-H460 lung
  TGI: > 100 µM
SNB-75 CNS
  TGI: > 100 µM
SK-MEL-5 melanoma
  TGI: > 100 µM
MDA-MB-231 breast
  TGI: > 100 µM
UACC-62 melanoma
  TGI: > 100 µM
SN12C renal
  TGI: > 100 µM
SK-MEL-28 melanoma
  TGI: > 100 µM
OVCAR-8 ovarian
  TGI: > 100 µM
OVCAR-4 ovarian
  TGI: > 100 µM
M14 melanoma
  TGI: > 100 µM
SF-268 CNS
  TGI: > 100 µM
RPMI-8226 leukemia
  TGI: > 100 µM

## O=S(=O)(NC1OCCCC1I)c1ccccc1 (configuration not stated)
CCRF-CEM leukemia
  TGI: > 100 µM
HS 578T breast
  TGI: > 100 µM
NCI-H522 lung
  TGI: > 100 µM
SF-295 CNS
  TGI: > 100 µM
SW-620 colon
  TGI: > 100 µM
KM12 colon
  TGI: > 100 µM
MDA-MB-435
  TGI: > 100 µM
NCI-H460 lung
  TGI: > 100 µM
SNB-75 CNS
  TGI: > 100 µM
SK-MEL-5 melanoma
  TGI: > 100 µM
MDA-MB-231 breast
  TGI: > 100 µM
UACC-62 melanoma
  TGI: > 100 µM
SN12C renal
  TGI: > 100 µM
SK-MEL-28 melanoma
  TGI: > 100 µM
OVCAR-8 ovarian
  TGI: > 100 µM
OVCAR-4 ovarian
  TGI: > 100 µM
SF-268 CNS
  TGI: > 100 µM
RPMI-8226 leukemia
  TGI: > 100 µM

## CCN(CC)c1ccc2cc(C(=O)Nc3nc(C45CC6CC(CC(C6)C4)C5)cs3)c(=O)oc2c1
CCRF-CEM leukemia
  TGI: > 100 µM
HS 578T breast
  TGI: > 100 µM
NCI-H522 lung
  TGI: > 100 µM
SF-295 CNS
  TGI: > 100 µM
SW-620 colon
  TGI: > 100 µM
KM12 colon
  TGI: > 100 µM
MDA-MB-435
  TGI: > 100 µM
NCI-H460 lung
  TGI: > 100 µM
SK-MEL-5 melanoma
  TGI: > 100 µM
MDA-MB-231 breast
  TGI: > 100 µM
SN12C renal
  TGI: > 100 µM
SK-MEL-28 melanoma
  TGI: > 100 µM
OVCAR-8 ovarian
  TGI: > 100 µM
OVCAR-4 ovarian
  TGI: > 100 µM
SF-268 CNS
  TGI: > 100 µM
RPMI-8226 leukemia
  TGI: > 100 µM

## CC(C)(CC#N)c1cc(CC(C)(C)c2cc(CC(C)(C)c3cc(C(C)(C)C4(C)OCCO4)no3)no2)no1
CCRF-CEM leukemia
  TGI: > 100 µM
HS 578T breast
  TGI: 88.7 µM
NCI-H522 lung
  TGI: > 100 µM
SF-295 CNS
  TGI: > 100 µM
SW-620 colon
  TGI: > 100 µM
KM12 colon
  TGI: > 100 µM
MDA-MB-435
  TGI: > 100 µM
SNB-75 CNS
  TGI: 43.5 µM
SK-MEL-5 melanoma
  TGI: > 100 µM
MDA-MB-231 breast
  TGI: 99.7 µM
UACC-62 melanoma
  TGI: > 100 µM
SN12C renal
  TGI: > 100 µM
SK-MEL-28 melanoma
  TGI: > 100 µM
OVCAR-8 ovarian
  TGI: > 100 µM
OVCAR-4 ovarian
  TGI: 91 µM
M14 melanoma
  TGI: > 100 µM
SF-268 CNS
  TGI: > 100 µM
RPMI-8226 leukemia
  TGI: > 100 µM

## CCOC(=O)/C(C[C@H]1OC(C)(C)O[C@@H]1[C@H]1COC(C)(C)O1)=N/O
CCRF-CEM leukemia
  TGI: > 100 µM
HS 578T breast
  TGI: > 100 µM
NCI-H522 lung
  TGI: > 100 µM
SF-295 CNS
  TGI: > 100 µM
SW-620 colon
  TGI: > 100 µM
KM12 colon
  TGI: > 100 µM
MDA-MB-435
  TGI: > 100 µM
NCI-H460 lung
  TGI: > 100 µM
SK-MEL-5 melanoma
  TGI: > 100 µM
MDA-MB-231 breast
  TGI: > 100 µM
UACC-62 melanoma
  TGI: > 100 µM
SN12C renal
  TGI: > 100 µM
SK-MEL-28 melanoma
  TGI: > 100 µM
OVCAR-8 ovarian
  TGI: > 100 µM
OVCAR-4 ovarian
  TGI: > 100 µM
M14 melanoma
  TGI: > 100 µM
SF-268 CNS
  TGI: > 100 µM
RPMI-8226 leukemia
  TGI: > 100 µM

## CCO/C(O)=C(/C(=N)N1CCCC1)C(=O)Nc1ccc(F)cc1
CCRF-CEM leukemia
  TGI: > 100 µM
HS 578T breast
  TGI: > 100 µM
NCI-H522 lung
  TGI: > 100 µM
SF-295 CNS
  TGI: > 100 µM
SW-620 colon
  TGI: > 100 µM
KM12 colon
  TGI: > 100 µM
MDA-MB-435
  TGI: > 100 µM
NCI-H460 lung
  TGI: > 100 µM
SNB-75 CNS
  TGI: > 100 µM
MDA-MB-231 breast
  TGI: > 100 µM
UACC-62 melanoma
  TGI: > 100 µM
SN12C renal
  TGI: > 100 µM
SK-MEL-28 melanoma
  TGI: > 100 µM
OVCAR-8 ovarian
  TGI: > 100 µM
OVCAR-4 ovarian
  TGI: > 100 µM
M14 melanoma
  TGI: > 100 µM
SF-268 CNS
  TGI: > 100 µM
RPMI-8226 leukemia
  TGI: > 100 µM

## CC(=O)OC1CC[C@@]2(C)C(C1)CC(OC(C)=O)[C@@H]1C2CC(OC(C)=O)[C@]2(C)C(C(C)CC=C(c3ccc(Cl)cc3)c3ccc(Cl)cc3)CCC12 (some centres not stated)
CCRF-CEM leukemia
  TGI: 95.2 µM
HS 578T breast
  TGI: > 100 µM
NCI-H522 lung
  TGI: > 100 µM
SF-295 CNS
  TGI: > 100 µM
SW-620 colon
  TGI: > 100 µM
KM12 colon
  TGI: > 100 µM
MDA-MB-435
  TGI: > 100 µM
NCI-H460 lung
  TGI: > 100 µM
SNB-75 CNS
  TGI: > 100 µM
SK-MEL-5 melanoma
  TGI: > 100 µM
MDA-MB-231 breast
  TGI: > 100 µM
SN12C renal
  TGI: > 100 µM
SK-MEL-28 melanoma
  TGI: > 100 µM
OVCAR-8 ovarian
  TGI: > 100 µM
OVCAR-4 ovarian
  TGI: > 100 µM
M14 melanoma
  TGI: > 100 µM
SF-268 CNS
  TGI: > 100 µM
RPMI-8226 leukemia
  TGI: 56.8 µM

## COc1ccc2c(c1)CCC1=C/C(=N\NC(N)=O)CCC12C (configuration not stated)
CCRF-CEM leukemia
  TGI: > 10 µM
HS 578T breast
  TGI: > 10 µM
NCI-H522 lung
  TGI: > 10 µM
SF-295 CNS
  TGI: > 10 µM
SW-620 colon
  TGI: > 10 µM
KM12 colon
  TGI: > 10 µM
MDA-MB-435
  TGI: > 10 µM
SNB-75 CNS
  TGI: > 10 µM
SK-MEL-5 melanoma
  TGI: > 10 µM
MDA-MB-231 breast
  TGI: > 10 µM
UACC-62 melanoma
  TGI: > 10 µM
SN12C renal
  TGI: > 10 µM
SK-MEL-28 melanoma
  TGI: > 10 µM
OVCAR-8 ovarian
  TGI: > 10 µM
OVCAR-4 ovarian
  TGI: > 10 µM
M14 melanoma
  TGI: > 10 µM
SF-268 CNS
  TGI: > 10 µM
RPMI-8226 leukemia
  TGI: > 10 µM
